Results reported in PubChem BioAssay AID1919002 (Molecular Pharmacology Branch, DTP, NCI, 2023).

System: 743489-274-T-PDC complex spheroid growth
Experiment: Anticancer human tumor 743489-274-T-PDC patient-derived renal cell carcinoma cell line growth inhibition [AhR]
Conditions: for IC50: curve of first compound; for viability, T/C: stronger effect = lower value
Summary of the method: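 Agents were dosed in half-log steps down from roughly clinical Cmax, or from 10 microM where Cmax was unknown, alone and with AhR antagonists. Read-out: percent test/control growth of tumor spheroids containing HUVEC and MSC stromal cells.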

[1] = second compound 0.1 µM, first compound 0.0316 µM
[2] = second compound 0.1 µM, first compound 0.1 µM
[3] = second compound 0.1 µM, first compound 0.316 µM
[4] = second compound 0.1 µM, first compound 1 µM
[5] = second compound 0.316 µM, first compound 0.0316 µM
[6] = second compound 0.316 µM, first compound 0.1 µM
[7] = second compound 0.316 µM, first compound 0.316 µM
[8] = second compound 0.316 µM, first compound 1 µM
[9] = second compound 1 µM, first compound 0.0316 µM
[10] = second compound 1 µM, first compound 0.1 µM
[11] = second compound 1 µM, first compound 0.316 µM
[12] = second compound 1 µM, first compound 1 µM
[13] = second compound 3.16 µM, first compound 0.0316 µM
[14] = second compound 3.16 µM, first compound 0.1 µM
[15] = second compound 3.16 µM, first compound 0.316 µM
[16] = second compound 3.16 µM, first compound 1 µM
[17] = second compound 10 µM, first compound 0.0316 µM
[18] = second compound 10 µM, first compound 0.1 µM
[19] = second compound 10 µM, first compound 0.316 µM
[20] = second compound 10 µM, first compound 1 µM
[21] = second compound 0.1 µM, first compound 3.16 µM
[22] = second compound 0.1 µM, first compound 10 µM
[23] = second compound 0.316 µM, first compound 3.16 µM
[24] = second compound 0.316 µM, first compound 10 µM
[25] = second compound 1 µM, first compound 3.16 µM
[26] = second compound 1 µM, first compound 10 µM
[27] = second compound 3.16 µM, first compound 3.16 µM
[28] = second compound 3.16 µM, first compound 10 µM
[29] = second compound 10 µM, first compound 3.16 µM
[30] = second compound 10 µM, first compound 10 µM
[31] = second compound 0.1 µM, first compound 0.00949 µM
[32] = second compound 0.1 µM, first compound 0.03 µM
[33] = second compound 0.1 µM, first compound 0.0949 µM
[34] = second compound 0.1 µM, first compound 0.3 µM
[35] = second compound 0.316 µM, first compound 0.00949 µM
[36] = second compound 0.316 µM, first compound 0.03 µM
[37] = second compound 0.316 µM, first compound 0.0949 µM
[38] = second compound 0.316 µM, first compound 0.3 µM
[39] = second compound 1 µM, first compound 0.00949 µM
[40] = second compound 1 µM, first compound 0.03 µM
[41] = second compound 1 µM, first compound 0.0949 µM
[42] = second compound 1 µM, first compound 0.3 µM
[43] = second compound 3.16 µM, first compound 0.00949 µM
[44] = second compound 3.16 µM, first compound 0.03 µM
[45] = second compound 3.16 µM, first compound 0.0949 µM
[46] = second compound 3.16 µM, first compound 0.3 µM
[47] = second compound 10 µM, first compound 0.00949 µM
[48] = second compound 10 µM, first compound 0.03 µM
[49] = second compound 10 µM, first compound 0.0949 µM
[50] = second compound 10 µM, first compound 0.3 µM
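Further: spheroids exposed to agents for 7 days before readout.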
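Wherever viability, T/C is given: 100% = DMSO vehicle control wells.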

CC1COCCN1c1cc(-c2ccnn2C)c2ccnc(-c3ccn[nH]3)c2n1 (stereo not given) + Cc1cncc(-c2nc(NCCc3c[nH]c4ccccc34)c3ncn(C(C)C)c3n2)c1
IC50 (second compound 0.1 µM): > 1 µM
IC50 (second compound 0.316 µM): > 1 µM
IC50 (second compound 1 µM): > 1 µM
IC50 (second compound 3.16 µM): > 1 µM
IC50 (second compound 10 µM): > 1 µM
viability, T/C (second compound 0.1 µM, first compound 0.00316 µM): 106%
viability, T/C (second compound 0.1 µM, first compound 0.01 µM): 106%
viability, T/C [1]: 113%
viability, T/C [2]: 105%
viability, T/C [3]: 100%
viability, T/C [4]: 84.5%
viability, T/C (second compound 0.316 µM, first compound 0.00316 µM): 99.7%
viability, T/C (second compound 0.316 µM, first compound 0.01 µM): 107%
viability, T/C [5]: 109%
viability, T/C [6]: 105%
viability, T/C [7]: 95.4%
viability, T/C [8]: 80.3%
viability, T/C (second compound 1 µM, first compound 0.00316 µM): 108%
viability, T/C (second compound 1 µM, first compound 0.01 µM): 104%
viability, T/C [9]: 116%
viability, T/C [10]: 99.8%
viability, T/C [11]: 102%
viability, T/C [12]: 85%
viability, T/C (second compound 3.16 µM, first compound 0.00316 µM): 120%
viability, T/C (second compound 3.16 µM, first compound 0.01 µM): 126%
viability, T/C [13]: 122%
viability, T/C [14]: 113%
viability, T/C [15]: 99.4%
viability, T/C [16]: 89.1%
viability, T/C (second compound 10 µM, first compound 0.00316 µM): 116%
viability, T/C (second compound 10 µM, first compound 0.01 µM): 148%
viability, T/C [17]: 143%
viability, T/C [18]: 142%
viability, T/C [19]: 124%
viability, T/C [20]: 109%

CC1COCCN1c1cc(C2(S(C)(=N)=O)CC2)nc(-c2ccnc3[nH]ccc23)n1 (stereo not given) + Cc1cncc(-c2nc(NCCc3c[nH]c4ccccc34)c3ncn(C(C)C)c3n2)c1
IC50 (second compound 0.1 µM): > 10 µM
IC50 (second compound 0.316 µM): > 10 µM
IC50 (second compound 1 µM): > 10 µM
IC50 (second compound 3.16 µM): > 10 µM
IC50 (second compound 10 µM): > 10 µM
viability, T/C [1]: 104%
viability, T/C [2]: 93.8%
viability, T/C [3]: 89.3%
viability, T/C [4]: 86%
viability, T/C [21]: 85.9%
viability, T/C [22]: 85.4%
viability, T/C [5]: 87.9%
viability, T/C [6]: 89.8%
viability, T/C [7]: 85.1%
viability, T/C [8]: 86.4%
viability, T/C [23]: 90%
viability, T/C [24]: 84.3%
viability, T/C [9]: 88.7%
viability, T/C [10]: 91.7%
viability, T/C [11]: 97.3%
viability, T/C [12]: 98.1%
viability, T/C [25]: 84.1%
viability, T/C [26]: 83.7%
viability, T/C [13]: 109%
viability, T/C [14]: 108%
viability, T/C [15]: 105%
viability, T/C [16]: 90.9%
viability, T/C [27]: 91.4%
viability, T/C [28]: 85.7%
viability, T/C [17]: 97.3%
viability, T/C [18]: 117%
viability, T/C [19]: 92.5%
viability, T/C [20]: 107%
viability, T/C [29]: 105%
viability, T/C [30]: 99.1%

COc1ccc([C@@H](O)c2cc(-c3ncnc4cc(N5CCOCC5)ccc34)c(F)cc2Cl)nn1 + Cc1cncc(-c2nc(NCCc3c[nH]c4ccccc34)c3ncn(C(C)C)c3n2)c1
IC50 (second compound 0.1 µM): 3.86 µM
IC50 (second compound 0.316 µM): 3.13 µM
IC50 (second compound 1 µM): 2.82 µM
IC50 (second compound 3.16 µM): 4.55 µM
IC50 (second compound 10 µM): > 10 µM
viability, T/C [1]: 95.3%
viability, T/C [2]: 98.9%
viability, T/C [3]: 90.3%
viability, T/C [4]: 98.1%
viability, T/C [21]: 52.9%
viability, T/C [22]: 36.1%
viability, T/C [5]: 94.2%
viability, T/C [6]: 94.6%
viability, T/C [7]: 88.4%
viability, T/C [8]: 82.8%
viability, T/C [23]: 49.4%
viability, T/C [24]: 29.4%
viability, T/C [9]: 99.5%
viability, T/C [10]: 95%
viability, T/C [11]: 93.2%
viability, T/C [12]: 84.7%
viability, T/C [25]: 46%
viability, T/C [26]: 35.5%
viability, T/C [13]: 112%
viability, T/C [14]: 118%
viability, T/C [15]: 102%
viability, T/C [16]: 87.5%
viability, T/C [27]: 53.8%
viability, T/C [28]: 39.4%
viability, T/C [17]: 114%
viability, T/C [18]: 119%
viability, T/C [19]: 102%
viability, T/C [20]: 99.3%
viability, T/C [29]: 65.5%
viability, T/C [30]: 59.5%

Nc1ncn(C2CC(O)C(CO)S2)c(=O)n1 (stereo not given) + Cc1cncc(-c2nc(NCCc3c[nH]c4ccccc34)c3ncn(C(C)C)c3n2)c1
IC50 (second compound 0.1 µM): > 0.3 µM
IC50 (second compound 0.316 µM): > 0.3 µM
IC50 (second compound 1 µM): > 0.3 µM
IC50 (second compound 3.16 µM): > 0.3 µM
IC50 (second compound 10 µM): > 0.3 µM
viability, T/C (second compound 0.1 µM, first compound 0.000949 µM): 107%
viability, T/C (second compound 0.1 µM, first compound 0.003 µM): 105%
viability, T/C [31]: 104%
viability, T/C [32]: 95.8%
viability, T/C [33]: 96.5%
viability, T/C [34]: 93.1%
viability, T/C (second compound 0.316 µM, first compound 0.000949 µM): 96.6%
viability, T/C (second compound 0.316 µM, first compound 0.003 µM): 99.8%
viability, T/C [35]: 104%
viability, T/C [36]: 98.3%
viability, T/C [37]: 84.7%
viability, T/C [38]: 101%
viability, T/C (second compound 1 µM, first compound 0.000949 µM): 108%
viability, T/C (second compound 1 µM, first compound 0.003 µM): 100%
viability, T/C [39]: 106%
viability, T/C [40]: 106%
viability, T/C [41]: 98.8%
viability, T/C [42]: 103%
viability, T/C (second compound 3.16 µM, first compound 0.000949 µM): 114%
viability, T/C (second compound 3.16 µM, first compound 0.003 µM): 106%
viability, T/C [43]: 119%
viability, T/C [44]: 118%
viability, T/C [45]: 109%
viability, T/C [46]: 96.2%
viability, T/C (second compound 10 µM, first compound 0.000949 µM): 138%
viability, T/C (second compound 10 µM, first compound 0.003 µM): 115%
viability, T/C [47]: 117%
viability, T/C [48]: 124%
viability, T/C [49]: 112%
viability, T/C [50]: 125%

O=C(C=Cn1cnc(-c2cc(C(F)(F)F)cc(C(F)(F)F)c2)n1)NNc1cnccn1 + Cc1cncc(-c2nc(NCCc3c[nH]c4ccccc34)c3ncn(C(C)C)c3n2)c1
IC50 (second compound 0.1 µM): > 3 µM
IC50 (second compound 0.316 µM): > 3 µM
IC50 (second compound 1 µM): > 3 µM
IC50 (second compound 3.16 µM): > 3 µM
IC50 (second compound 10 µM): > 3 µM
viability, T/C [31]: 103%
viability, T/C [32]: 95.6%
viability, T/C [33]: 112%
viability, T/C [34]: 122%
viability, T/C (second compound 0.1 µM, first compound 0.949 µM): 124%
viability, T/C (second compound 0.1 µM, first compound 3 µM): 96.5%
viability, T/C [35]: 96.2%
viability, T/C [36]: 92.5%
viability, T/C [37]: 97.5%
viability, T/C [38]: 107%
viability, T/C (second compound 0.316 µM, first compound 0.949 µM): 106%
viability, T/C (second compound 0.316 µM, first compound 3 µM): 83.7%
viability, T/C [39]: 94.5%
viability, T/C [40]: 102%
viability, T/C [41]: 98.7%
viability, T/C [42]: 105%
viability, T/C (second compound 1 µM, first compound 0.949 µM): 108%
viability, T/C (second compound 1 µM, first compound 3 µM): 104%
viability, T/C [43]: 111%
viability, T/C [44]: 101%
viability, T/C [45]: 102%
viability, T/C [46]: 117%
viability, T/C (second compound 3.16 µM, first compound 0.949 µM): 103%
viability, T/C (second compound 3.16 µM, first compound 3 µM): 96.2%
viability, T/C [47]: 80.4%
viability, T/C [48]: 80.2%
viability, T/C [49]: 84.4%
viability, T/C [50]: 102%
viability, T/C (second compound 10 µM, first compound 0.949 µM): 102%
viability, T/C (second compound 10 µM, first compound 3 µM): 101%
